Test results from article PMC8963254, “Effects of Lysine N-ζ-Methylation in Ultrashort Tetrabasic Lipopeptides (UTBLPs) on the Potentiation of Rifampicin, Novobiocin, and Niclosamide in Gram-Negative Bacteria” (Antibiotics, 2022).
≈ marks a conversion by molar mass, not a printed value. Like-named read-outs stand apart in the source and are kept apart here.

What was measured:
E. cloacae 118564 [1] = test: microbe, parasite or virus in culture; format: cell-based, Enterobacter cloacae; conditions: 118564, 18 h
Method in brief: (§1)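 Turbidity at 590 nm defined growth, from which the MIC was taken. Cultures at a final density of 5 × 10^5 CFU/mL were exposed to a range of compound levels at 37 °C for 18 h in a CLSI-based microdilution format.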

E. cloacae 118564 [2] = format: cell-based, Enterobacter cloacae; conditions: for MICUTBLP: UTBLP alone
Method in brief: (§2)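 Values derive from a two-agent checkerboard with an 18 h, 37 °C incubation. FICI cut-offs: ≤0.5 synergy, 0.5–4 additive, >4 antagonism.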

A. baumannii ATCC 17978 [3] = format: cell-based, Acinetobacter baumannii; conditions: for MICUTBLP: UTBLP alone
Method in brief: as §2

A. baumannii 92247 = format: cell-based, Acinetobacter baumannii; conditions: for MICUTBLP: UTBLP alone
Method in brief: as §2

A. baumannii AB027 [4] = format: cell-based, Acinetobacter baumannii; conditions: for MICUTBLP: UTBLP alone
Method in brief: as §2

P. aeruginosa PAO1 = format: cell-based, Pseudomonas aeruginosa; conditions: PAO1, 18 h
Description: (§3) The in vitro antibacterial activity of the UTBLPs was assessed against wild-type and clinically isolated bacterial strains. To obtain the MIC of the compounds, the microbroth dilution susceptibility assay was performed according to the Clinical and Laboratory Standards Institute (CLSI, Wayne, PA, USA) guidelines and as previously described. Briefly, the compounds at varying concentrations were incubated with bacterial inoculum (5 × 10^5 CFU/mL final concentration) at 37 °C for 18 h. Growth in the form of turbidity was confirmed using an EMax Plus microplate reader (Molecular Devices, San Jose, CA, USA) at 590 nm.

E. faecalis ATCC 29212 = format: cell-based, Enterococcus faecalis
Method in brief: as §2

A. baumannii ATCC 17978 [5] = format: cell-based, Acinetobacter baumannii; conditions: ATCC 17978, 18 h
Description: as §3

MRSA ATCC 33592 = format: cell-based, Staphylococcus aureus
Method in brief: as §2

S. aureus ATCC 29213 = format: cell-based, Staphylococcus aureus
Method in brief: as §2

K. pneumoniae 113250 [6] = format: cell-based, Klebsiella pneumoniae; conditions: for MICUTBLP: UTBLP alone
Method in brief: as §2

E. faecium ATCC 27270 = format: cell-based, Enterococcus faecium; conditions: ATCC 27270, 18 h
Description: as §3

A. baumannii AB92247 = test: microbe, parasite or virus in culture; format: cell-based, Acinetobacter baumannii; conditions: AB92247, 18 h
Method in brief: as §1

A. baumannii AB027 [7] = test: microbe, parasite or virus in culture; format: cell-based, Acinetobacter baumannii; conditions: AB027, 18 h
Method in brief: as §1

E. coli ATCC 25922 = format: cell-based, Escherichia coli; conditions: ATCC 25922, 18 h
Description: as §3

MRSE 61589 [8] = format: cell-based, Staphylococcus epidermidis; conditions: 61589, 18 h
Description: as §3

MSSE 81388 [9] = format: cell-based, Staphylococcus epidermidis; conditions: 18 h
Description: as §3

K. pneumoniae 113250 [10] = test: microbe, parasite or virus in culture; format: cell-based, Klebsiella pneumoniae; conditions: 113250, 18 h
Method in brief: as §1

MRSE 61589 [11] = format: cell-based, Staphylococcus epidermidis
Method in brief: as §2

MSSE 81388 [12] = format: cell-based, Staphylococcus epidermidis
Method in brief: as §2

[13] = UTBLP in combination with novobiocin
[14] = UTBLP in combination with rifampicin
[15] = novobiocin in combination with the UTBLP
[16] = rifampicin in combination with the UTBLP
[17] = UTBLP in combination with chloramphenicol
[18] = chloramphenicol in combination with the UTBLP
[19] = UTBLP alone, plate with chloramphenicol

MIC (E. cloacae 118564 [1]): > 128 µg/mL
MICUTBLP (E. cloacae 118564 [2]; plate with novobiocin): > 128 µg/mL
MICUTBLP (E. cloacae 118564 [2]; plate with rifampicin): > 128 µg/mL
MICUTBLP [MICcombo] (E. cloacae 118564 [2]; [13]): 8 µg/mL
MICUTBLP [MICcombo] (E. cloacae 118564 [2]; [14]): 8 µg/mL
MICantibiotic [MICcombo] (E. cloacae 118564 [2]; [15]): 2 µg/mL
MICantibiotic [MICcombo] (E. cloacae 118564 [2]; [16]): 0.125 µg/mL
MICUTBLP (A. baumannii ATCC 17978 [3]; plate with chloramphenicol): > 128 µg/mL
MICUTBLP (A. baumannii ATCC 17978 [3]; plate with niclosamide): > 128 µg/mL
MICUTBLP (A. baumannii ATCC 17978 [3]; plate with novobiocin): > 128 µg/mL
MICUTBLP (A. baumannii ATCC 17978 [3]; plate with rifampicin): > 128 µg/mL
MICUTBLP [MICcombo] (A. baumannii ATCC 17978 [3]; [17]): 32 µg/mL
MICUTBLP [MICcombo] (A. baumannii ATCC 17978 [3]; UTBLP in combination with niclosamide): 8 µg/mL
MICUTBLP [MICcombo] (A. baumannii ATCC 17978 [3]; [13]): 16 µg/mL
MICUTBLP [MICcombo] (A. baumannii ATCC 17978 [3]; [14]): 8 µg/mL
MICantibiotic [MICcombo] (A. baumannii ATCC 17978 [3]; [18]): 32 µg/mL
MICantibiotic [MICcombo] (A. baumannii ATCC 17978 [3]; niclosamide in combination with the UTBLP): 0.5 µg/mL
MICantibiotic [MICcombo] (A. baumannii ATCC 17978 [3]; [15]): 0.125 µg/mL
MICantibiotic [MICcombo] (A. baumannii ATCC 17978 [3]; [16]): 0.125 µg/mL
MICUTBLP (A. baumannii 92247; plate with novobiocin): 64 µg/mL
MICUTBLP (A. baumannii 92247; plate with rifampicin): 64 µg/mL
MICUTBLP [MICcombo] (A. baumannii 92247; [13]): 4 µg/mL
MICUTBLP [MICcombo] (A. baumannii 92247; [14]): 4 µg/mL
MICantibiotic [MICcombo] (A. baumannii 92247; [15]): 0.25 µg/mL
MICantibiotic [MICcombo] (A. baumannii 92247; [16]): 0.125 µg/mL
MICUTBLP (A. baumannii AB027 [4]; plate with novobiocin): 128 µg/mL
MICUTBLP (A. baumannii AB027 [4]; plate with rifampicin): 128 µg/mL
MICUTBLP [MICcombo] (A. baumannii AB027 [4]; [13]): 8 µg/mL
MICUTBLP [MICcombo] (A. baumannii AB027 [4]; [14]): 8 µg/mL
MICantibiotic [MICcombo] (A. baumannii AB027 [4]; [15]): 0.125 µg/mL
MICantibiotic [MICcombo] (A. baumannii AB027 [4]; [16]): 0.063 µg/mL
MIC (P. aeruginosa PAO1): >128 µg/mL
MICUTBLP (E. faecalis ATCC 29212; [19]): 128 µg/mL
MICUTBLP [MICcombo] (E. faecalis ATCC 29212; [17]): 16 µg/mL
MICchloramphenicol [MICcombo] (E. faecalis ATCC 29212; [18]): 2 µg/mL
MIC (A. baumannii ATCC 17978 [5]): >128 µg/mL
MICUTBLP (MRSA ATCC 33592; [19]): 128 µg/mL
MICUTBLP [MICcombo] (MRSA ATCC 33592; [17]): 0.25 µg/mL
MICchloramphenicol [MICcombo] (MRSA ATCC 33592; [18]): 64 µg/mL
MICUTBLP (S. aureus ATCC 29213; [19]): 64 µg/mL
MICUTBLP [MICcombo] (S. aureus ATCC 29213; [17]): 0.25 µg/mL
MICchloramphenicol [MICcombo] (S. aureus ATCC 29213; [18]): 8 µg/mL
MICUTBLP (K. pneumoniae 113250 [6]; plate with novobiocin): > 128 µg/mL
MICUTBLP (K. pneumoniae 113250 [6]; plate with rifampicin): > 128 µg/mL
MICUTBLP [MICcombo] (K. pneumoniae 113250 [6]; [13]): 8 µg/mL
MICUTBLP [MICcombo] (K. pneumoniae 113250 [6]; [14]): 16 µg/mL
MICantibiotic [MICcombo] (K. pneumoniae 113250 [6]; [15]): 16 µg/mL
MICantibiotic [MICcombo] (K. pneumoniae 113250 [6]; [16]): 0.5 µg/mL
MIC (E. faecium ATCC 27270): 64 µg/mL (≈ 77.6 µM)
MIC (A. baumannii AB92247): 64 µg/mL (≈ 77.6 µM)
MIC (A. baumannii AB027 [7]): 128 µg/mL (≈ 155 µM)
MIC (E. coli ATCC 25922): >128 µg/mL
MIC (MRSE 61589 [8]): 32 µg/mL (≈ 38.8 µM)
MIC (MSSE 81388 [9]): 32 µg/mL (≈ 38.8 µM)
MIC (K. pneumoniae 113250 [10]): > 128 µg/mL
MICUTBLP (MRSE 61589 [11]; [19]): 32 µg/mL
MICUTBLP [MICcombo] (MRSE 61589 [11]; [17]): 16 µg/mL
MICchloramphenicol [MICcombo] (MRSE 61589 [11]; [18]): 2 µg/mL
MICUTBLP (MSSE 81388 [12]; [19]): 32 µg/mL
MICUTBLP [MICcombo] (MSSE 81388 [12]; [17]): 0.25 µg/mL
MICchloramphenicol [MICcombo] (MSSE 81388 [12]; [18]): 4 µg/mL
Structure (SMILES): CCCCCCCC(=O)N[C@@H](CCCCN)C(=O)NCCCN(CCCNC(=O)[C@H](CCCCN)NC(=O)CCCCCCC)CC(=O)N[C@@H](CCCCN)C(N)=O [UTBLP 1]
Interpretation (E. cloacae 118564 [2]; UTBLP + novobiocin): Synergy (FICI ≤ 0.5 is synergistic)
Interpretation (E. cloacae 118564 [2]; UTBLP + rifampicin): Synergy (FICI ≤ 0.5 is synergistic)
Interpretation (A. baumannii ATCC 17978 [3]; UTBLP + chloramphenicol): Additive (0.5 < x ≤ 4 is additive)
Interpretation (A. baumannii ATCC 17978 [3]; UTBLP + niclosamide): Synergy (FICI ≤ 0.5 is synergistic)
Interpretation (A. baumannii ATCC 17978 [3]; UTBLP + novobiocin): Synergy (FICI ≤ 0.5 is synergistic)
Interpretation (A. baumannii ATCC 17978 [3]; UTBLP + rifampicin): Synergy (FICI ≤ 0.5 is synergistic)
Interpretation (A. baumannii 92247; UTBLP + novobiocin): Synergy (FICI ≤ 0.5 is synergistic)
Interpretation (A. baumannii 92247; UTBLP + rifampicin): Synergy (FICI ≤ 0.5 is synergistic)
Interpretation (A. baumannii AB027 [4]; UTBLP + novobiocin): Synergy (FICI ≤ 0.5 is synergistic)
Interpretation (A. baumannii AB027 [4]; UTBLP + rifampicin): Synergy (FICI ≤ 0.5 is synergistic)
Interpretation (E. faecalis ATCC 29212; UTBLP + chloramphenicol): Additive (0.5 < x ≤ 4 is additive)
Interpretation (MRSA ATCC 33592; UTBLP + chloramphenicol): Additive (0.5 < x ≤ 4 is additive)
Interpretation (K. pneumoniae 113250 [6]; UTBLP + novobiocin): Synergy (FICI ≤ 0.5 is synergistic)
Interpretation (K. pneumoniae 113250 [6]; UTBLP + rifampicin): Synergy (FICI ≤ 0.5 is synergistic)
Interpretation (MRSE 61589 [11]; UTBLP + chloramphenicol): Additive (0.5 < x ≤ 4 is additive)
Interpretation (MSSE 81388 [12]; UTBLP + chloramphenicol): Additive (0.5 < x ≤ 4 is additive)
